Measurements as given in ChEMBL document CHEMBL1201862, “PubChem BioAssay data set” (2004).
Where “and” joins values, the source holds several entries; their conditions need not be identical. Equal entries are not always repeated.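 Briefly, cells in 96-well plates were exposed to five compound concentrations for 48 h, and endpoints were estimated by linear interpolation. The concentration for 50% growth inhibition is given as GI50.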 Calls of active or inactive are those of the source. No stated cut-off is given here; in the data, active = GI50 up to about 1.1 µM and inactive = higher.

Legend:
Assay in all cases: NCI anticancer screen, dose series, 48 h
CCRF-CEM = tested on: CCRF-CEM
HOP-92 = tested on: HOP-92
HT-29 = tested on: HT-29
SNB-75 = tested on: SNB-75
HOP-62 = tested on: HOP-62
SK-MEL-28 = tested on: SK-MEL-28
NCI-H460 = tested on: NCI-H460
SF-295 = tested on: SF-295
SNB-19 = tested on: SNB-19
OVCAR-4 = tested on: OVCAR-4
A549 = tested on: A549
SK-MEL-2 = tested on: SK-MEL-2
SW-620 = tested on: SW-620
NCI-H226 = tested on: NCI-H226
MOLT-4 = tested on: MOLT-4
HCT-15 = tested on: HCT-15
SF-268 = tested on: SF-268
COLO 205 = tested on: COLO 205
UO-31 = tested on: UO-31
NCI-H23 = tested on: NCI-H23

Compound | GI50 (CCRF-CEM) | GI50 (HOP-92) | GI50 (HT-29) | GI50 (SNB-75) | GI50 (HOP-62) | GI50 (SK-MEL-28) | GI50 (NCI-H460) | GI50 (SF-295) | GI50 (SNB-19) | GI50 (OVCAR-4) | GI50 (A549) | GI50 (SK-MEL-2) | GI50 (SW-620) | GI50 (NCI-H226) | GI50 (MOLT-4) | GI50 (HCT-15) [µM] | GI50 (SF-268) | GI50 (COLO 205) | GI50 (UO-31) | GI50 (NCI-H23)
COc1ccc(C2=N/C(=C\c3ccccc3)C(=O)O2)cc1 | 31 µM (inactive) | > 100 µM (inactive) | > 100 µM (inactive) | 45.2 µM (inactive) | 38.7 µM (inactive) | > 100 µM (inactive) | > 100 µM (inactive) | > 100 µM (inactive) | 75.7 µM (inactive) | 37.1 µM (inactive) | > 100 µM (inactive) | > 100 µM (inactive) | > 100 µM (inactive) | 28.5 µM (inactive) | 13.3 µM (inactive) | 52.1 | > 100 µM (inactive) | – | – | –
CCC(C)NC1=NCC(C)S1 (stereo not given) | > 100 µM (inactive) | > 100 µM (inactive) | > 100 µM (inactive) | > 100 µM (inactive) | > 100 µM (inactive) | > 100 µM (inactive) | > 100 µM (inactive) | > 100 µM (inactive) | > 100 µM (inactive) | – | > 100 µM (inactive) | > 100 µM (inactive) | > 100 µM (inactive) | > 100 µM (inactive) | > 100 µM (inactive) | > 100 | > 100 µM (inactive) | > 100 µM (inactive) | > 100 µM (inactive) | > 100 µM (inactive)
CCCn1cc2c(SC)nc(SC)nc2n1 | > 100 µM (inactive) | > 100 µM (inactive) | > 100 µM (inactive) | > 100 µM (inactive) | – | > 100 µM (inactive) | > 100 µM (inactive) | > 100 µM (inactive) | > 100 µM (inactive) | > 100 µM (inactive) | > 100 µM (inactive) | > 100 µM (inactive) | > 100 µM (inactive) | 32.2 µM (inactive) | > 100 µM (inactive) | > 100 | > 100 µM (inactive) | > 100 µM (inactive) | > 100 µM (inactive) | > 100 µM (inactive)
CCOc1ccc2nc(-c3ccc(O)cc3)sc2c1 | – | – | 46.6 µM (inactive) | – | – | – | 77.1 µM (inactive) | 20.1 µM (inactive) | 23.9 µM (inactive) | – | > 100 µM (inactive) | 71 µM (inactive) | > 100 µM (inactive) | > 100 µM (inactive) | > 100 µM (inactive) | 97.3 | 19.6 µM (inactive) | > 100 µM (inactive) | 17.2 µM (inactive) | 23.5 µM (inactive)
CC(=O)C1(c2ccccc2)CCCN(C)CC1 (stereo not given) | > 100 µM (inactive) | > 100 µM (inactive) | > 100 µM (inactive) | > 100 µM (inactive) | > 100 µM (inactive) | > 100 µM (inactive) | > 100 µM (inactive) | > 100 µM (inactive) | > 100 µM (inactive) | > 100 µM (inactive) | – | > 100 µM (inactive) | > 100 µM (inactive) | > 100 µM (inactive) | > 100 µM (inactive) | > 100 | – | > 100 µM (inactive) | > 100 µM (inactive) | > 100 µM (inactive)
COc1cccc(N2C(=O)CSC2c2c[nH]c3ccccc23)c1 (stereo not given) | > 100 µM (inactive) | 66.1 µM (inactive) | > 100 µM (inactive) | > 100 µM (inactive) | > 100 µM (inactive) | > 100 µM (inactive) | > 100 µM (inactive) | > 100 µM (inactive) | > 100 µM (inactive) | 73.6 µM (inactive) | – | – | > 100 µM (inactive) | – | > 100 µM (inactive) | > 100 | > 100 µM (inactive) | > 100 µM (inactive) | > 100 µM (inactive) | > 100 µM (inactive)
CC(=O)c1ccc2c(c1)c1c(C)c3c[n+](C)ccc3c(C)c1n2C | 3.76 µM (inactive) | 11.8 µM (inactive) | 13.2 µM (inactive) | 7.48 µM (inactive) | 7.36 µM (inactive) | 7.87 µM (inactive) | 2.76 µM (inactive) | 0.885 µM (active) | 1.07 µM (active) | 4.85 µM (inactive) | 13.9 µM (inactive) | 7.14 µM (inactive) | 1.03 µM (active) | 2.82 µM (inactive) | 0.641 µM (active) | 17.6 | 0.469 µM (active) | 9.57 µM (inactive) | 3.36 µM (inactive) | –
COc1cccc2c1C(=O)c1c(O)c3c(c(O)c1C2=O)CC(O)(C(C)=O)CC3O (stereo not given) | 1.88 µM (inactive) | 7.11 µM (inactive) | 6.04 µM (inactive) | 9.68 µM (inactive) | 2.14 µM (inactive) | 12.7 µM (inactive) | 1.56 µM (inactive) | 5.73 µM (inactive) | 6.03 µM (inactive) | 6.34 µM (inactive) | 6.55 µM (inactive) | 8.07 µM (inactive) | 2.33 µM (inactive) | 5.56 µM (inactive) | 1.98 µM (inactive) | 9.23 | 4.23 µM (inactive) | 3.02 µM (inactive) | 9.57 µM (inactive) | 4.88 µM (inactive)
Cc1nc(-c2nc([N+](=O)[O-])c([N+](=O)[O-])[nH]2)cs1 | > 100 µM (inactive) | > 100 µM (inactive) | > 100 µM (inactive) | > 100 µM (inactive) | > 100 µM (inactive) | > 100 µM (inactive) | > 100 µM (inactive) | > 100 µM (inactive) | > 100 µM (inactive) | > 100 µM (inactive) | > 100 µM (inactive) | > 100 µM (inactive) | > 100 µM (inactive) | > 100 µM (inactive) | > 100 µM (inactive) | – | 88.9 µM (inactive) | > 100 µM (inactive) | > 100 µM (inactive) | > 100 µM (inactive)
CCOC1=NC(C(F)(F)F)(C(F)(F)F)N=C(N2CCOCC2)O1 | > 100 µM (inactive) | > 100 µM (inactive) | > 100 µM (inactive) | > 100 µM (inactive) | – | > 100 µM (inactive) | > 100 µM (inactive) | > 100 µM (inactive) | > 100 µM (inactive) | > 100 µM (inactive) | > 100 µM (inactive) | > 100 µM (inactive) | > 100 µM (inactive) | – | > 100 µM (inactive) | > 100 | > 100 µM (inactive) | > 100 µM (inactive) | > 100 µM (inactive) | > 100 µM (inactive)
CN(C)C(=O)/C=C/c1c[nH]c(=O)[nH]c1=O | > 500 µM (inactive) | > 500 µM (inactive) | > 500 µM (inactive) | > 500 µM (inactive) | > 500 µM (inactive) | > 500 µM (inactive) | > 500 µM (inactive) | > 500 µM (inactive) | > 500 µM (inactive) | > 500 µM (inactive) | > 500 µM (inactive) | > 500 µM (inactive) | > 500 µM (inactive) | > 500 µM (inactive) | > 500 µM (inactive) | > 500 | > 500 µM (inactive) | > 500 µM (inactive) | > 500 µM (inactive) | > 500 µM (inactive)
O=C1c2cc3c(cc2[C@@H]2C(O)[C@H]4O[C@H]4C4CCN1C42)OCO3 (stereo not given in full) | > 37.5 µM (inactive) | > 37.5 µM (inactive) | > 37.5 µM (inactive) | – | > 37.5 µM (inactive) | > 37.5 µM (inactive) | > 37.5 µM (inactive) | > 37.5 µM (inactive) | > 37.5 µM (inactive) | > 37.5 µM (inactive) | > 37.5 µM (inactive) | > 37.5 µM (inactive) | > 37.5 µM (inactive) | > 37.5 µM (inactive) | > 37.5 µM (inactive) | > 37.5 | > 37.5 µM (inactive) | > 37.5 µM (inactive) | > 37.5 µM (inactive) | –
CCCCCCCCCCSCC(CO)NC(=O)/C=C/c1c(C)[nH]c(=O)[nH]c1=O (stereo not given) | 259 nM (active) and 258 nM (active) | 1.54 µM (inactive) and 820 nM (active) | 4.02 µM (inactive) and 7.43 µM (inactive) | 1.39 µM (inactive) and 1.32 µM (inactive) | 2.03 µM (inactive) and 3.24 µM (inactive) | 1.77 µM (inactive) and 1.85 µM (inactive) | 1.51 µM (inactive) and 1.76 µM (inactive) | 29.1 µM (inactive) and 17.9 µM (inactive) | 881 nM (active) and 925 nM (active) | – | 32.8 µM (inactive) and > 50 µM (inactive) | 1.25 µM (inactive) and 804 nM (active) | 1.61 µM (inactive) and 1.51 µM (inactive) | – | 1.22 µM (inactive) and 1.44 µM (inactive) | – | 684 nM (active) and 723 nM (active) | 762 nM (active) and 1.19 µM (inactive) | 10.5 µM (inactive) and 6.84 µM (inactive) | –
Cc1ccc(NC(=O)CC/C(CC(=O)C(C)(C)C)=N/NC(=O)c2cc3ccccc3cc2O)cc1C | 16.2 µM (inactive) | 47.6 µM (inactive) | 41.7 µM (inactive) | – | 36.8 µM (inactive) | 80 µM (inactive) | 39.4 µM (inactive) | 17.9 µM (inactive) | 39.5 µM (inactive) | 30.8 µM (inactive) | – | 32.4 µM (inactive) | 48 µM (inactive) | 37.2 µM (inactive) | 17.7 µM (inactive) | 27.7 | 33.3 µM (inactive) | 39.1 µM (inactive) | 38.6 µM (inactive) | 19.6 µM (inactive)
COP(=O)(OC)/C(=C\C1=CN(C(c2ccccc2)(c2ccccc2)c2ccccc2)CN1)NC=O | – | 10.3 µM (inactive) | 15 µM (inactive) | 20.2 µM (inactive) | 16.5 µM (inactive) | 17.7 µM (inactive) | 14 µM (inactive) | 16.4 µM (inactive) | 20.1 µM (inactive) | 16.3 µM (inactive) | 14.2 µM (inactive) | 15.9 µM (inactive) | 20.4 µM (inactive) | 21.2 µM (inactive) | 12.8 µM (inactive) | 16.6 | – | 17.3 µM (inactive) | 15 µM (inactive) | 18.2 µM (inactive)
